Where a name gives a salt, the structure may show the parent alone. Read-outs that look alike come from different tables or passages of the source. A value given as a limit tells only on which side of the number the result lay.

The text below walks through data of US4272540A, “14-Methoxymorphinan-6-one compounds and therapeutic methods of treating pain and drug dependence with them” (SISA, Incorporated, priority 1979, dated 1981).

One assay deals with mice. Put plainly: Test A: acetic acid mouse writhing test (analgesic effects). The class given is in vivo, male CD-1 mice. The note with it: for ED50: Mus musculus, sc. The procedure: (A) Analgesic effects upon mice (acetic acid writhing test).
(§1) The analgesic effects of test compounds were determined in mice by use of the acetic acid writhing test described by B. J. R. Whittle, Brit. J. Pharmacol., 22:296 (1964). In this test at least three groups of five male CD-1 mice each were given subcutaneous doses of the test drug dissolved in either distilled water or distilled water acidified with HCl depending on the solubility of the compound. In all cases, 0.4 milliliter of a 0.5% V/V acetic acid in distilled water solution was administered intraperitoneally 15 minutes post drug. The number of writhes in a 20 minute interval beginning 5 minutes after the acetic acid injection were determined and compared with the number of writes in control groups which had received only acetic acid.
Percent inhibition of writhing was calculated as: [formula]
(§2) The ED50 dose, i.e., the dose required to reduce the number of writhes by 50%, was determined graphically from a plot of % inhibition as a probit versus log dose. Confidence limits of 95% were calculated on the basis of those results falling in the range 16-84% inhibition. See Litchfield, J. T. and Wilcoxon, F., J. Pharmacol. Exp. Ther., 96, 99-113, (1949).
(§3) The results of these experiments are set out in Table I where R, R1 and R2 refer to the proceeding general formula for the compounds of the present invention. In the column under R2 CBM stands for cyclobutylmethyl, CPM for cyclopropylmethyl, THF for tetrahydrofurfuryl and DMA for dimethylallyl.

For another assay, the system named is rats. The assay is described as follows: Test B: narcotic antagonist activity (modified rat tail flick test, morphine antagonism). The class given is in vivo, male albino Wistar rats. More on the design: key to AD50 (Test B): inactive at dose stated: IA is intended to mean "inactive". Particulars: for ED50: Rattus norvegicus; for AD50 (Test B): inactive at dose stated: at 10 mg/kg, interperitoneally. The procedure:
(B) Narcotic antagonist activity in rats (modified rat tail flick test).
The narcotic antagonist effects of test compounds were determined by a modification of the rat tail flick procedure of Harris and Pierson (J. Pharmacol. Exp. Ther. 143:141[1964]).
(§4) Male albino Wistar rats (100-120 g) were used for this study. A rat's tail is so placed so as to cover a photocell. Heat is applied by a lamp in a reflector with a timer being connected to the lamp and photocell so that the timer goes on when the light is turned on and is turned off when the photocell is uncovered. A rheostat, incorporated into a heating lamp is used to adjust the intensity of the light falling on the tail of the rat such that the rat's control reaction time is from two to four seconds. Animals with a control reaction time outside this range are rejected. The rheostat adjustment is made only if a significant proportion (more than 2 out of every 10 rats) of the reaction times are outside the range of two to four seconds. Groups of five rats were used each time, and two control times were determined at 60 and 30 minutes prior to subcutaneous injection of the drug.
(§5) Thirty minutes after the last control run the test drug was given interperitoneally. This was followed ten minutes later by an ED80 dose of morphine subcutaneously. The animals were retested at 20 minutes after the morphine injection. Control animals were given vehicle and morphine only. The data were calculated as follows: [formula]
(§6) The data were plotted on log-probit paper and AD50 values, i.e., the dose required to inhibit the morphine effect by 50% within 95% condidence limits, were determined by the method of Litchfield and Wilcoxon.
as §3

The nature of assay [1]: Overall agonist/antagonist classification from Table I (Tests A and B). The class given is in vivo, mice (Test A); rats (Test B). The note with it: from ED50 and AD50 values of Table I. The protocol:
as §1, §2, §4, §5, §6

The conditions of assay [2]: prior art report; cited from earlier work.
Where [3] appears, read: sc, rats, tail flick, drug interperitoneally 10 min before ED80 morphine s.c., dose inhibiting morphine effect by 50%, read-out: AD50 (Test B, narcotic antagonist activity).
[4] abbreviates: subcutaneous, 15 min before acetic acid, dose reducing writhes by 50%, read-out: ED50 (Test A, acetic acid mouse writhing test).
The mark [5] stands for this setting: rats, tail flick, drug interperitoneally 10 min before ED80 morphine s.c., dose inhibiting morphine effect by 50%.

On to `COc1ccc2c(c1)[C@]13CCN(CC4CC4)[C@H](C2)[C@]1(OC)[C@@H](C)CC(=O)C3.Cl` [TR-5209, 17-Cyclopropylmethyl-3,14-dimethoxy-8β-methylmorphinan-6-one Hydrochloride], for which the “ED50 (Test A): inactive at dose stated” value with mice (at 13 mg/kg, subcutaneous) is “IA (IA is intended to mean "inactive")”. Further, the ED50 in the assay with rats (setting [3]) is 0.45 mg/kg. In assay [1], the agonist/antagonist profile entry was “pure narcotic antagonists”.

For `CO[C@@]12[C@@H](C)CC(=O)C[C@@]13CCN(CC1CC1)[C@@H]2Cc1ccc(O)cc13.Cl` [TR-5210, 17-Cyclopropylmethyl-3-hydroxy-14-methoxy-8β-methylmorphinan-6-one Hydrochloride], the ED50 in the assay on mice (setting [4]) is 30 mg/kg; with rats (rats, tail flick vs morphine, unit inferred, read-out: AD50 (the source's name)) it was 0.004 mg/kg; in the assay with rats (setting [3]), 0.004 mg/kg. Besides, in the assay on rats (naloxone as comparator), the “potency as narcotic antagonist relative to naloxone” value is reported as 10 times. The agonist/antagonist profile entry in assay [1] (Hydrochloride) is “pure narcotic antagonist”.

As to `COc1ccc2c(c1)[C@]13CCN(CC4CCC4)[C@H](C2)[C@]1(OC)[C@@H](C)CC(=O)C3.Cl` [TR-5211, 17-Cyclobutylmethyl-3,14-dimethoxy-8β-methylmorphinan-6-one Hydrochloride], the “ED50 (Test A): inactive at dose stated” value with mice (at 10 mg/kg, subcutaneous) is “IA (IA is intended to mean "inactive")”. Also, the ED50 in the assay on rats (setting [3]) came out at 0.41 mg/kg. Further, the agonist/antagonist profile entry in assay [1] was “pure narcotic antagonists”.

`CO[C@@]12[C@@H](C)CC(=O)C[C@@]13CCN(CC1CCC1)[C@@H]2Cc1ccc(O)cc13` [TR-5212, 17-Cyclobutylmethyl-3-hydroxy-14-methoxy-8β-methylmorphinan-6-one Hydrochloride]: the “ED50 (Test A): inactive at dose stated” value in the assay with mice (at 10 mg/kg, subcutaneous) is “IA (IA is intended to mean "inactive")”. Also, the ED50 in the assay with rats (setting [3]) stood at 0.18 mg/kg. Moreover, the agonist/antagonist profile result in assay [1] is on record as “pure narcotic antagonists”.

As to `COc1ccc2c(c1)[C@]13CCN(CC4CCC4)[C@H](C2)[C@]1(OC)[C@H](C)CC(=O)C3.Cl` [TR-5219, 17-Cyclobutylmethyl-3,14-dimethoxy-8α-methylmorphinan-6-one Hydrochloride], the ED50 in the assay on mice (setting [4]) turned out to be 15.1 mg/kg. The ED50 with mice (writhing, unit inferred, read-out: ED50 value) amounted to 15.1 mg/kg. For the same compound, the “analgesic activity (in words)” value in the assay on mice (writhing) is on record as “only a weak analgesic”. Further, in the assay on rats (rats, tail flick vs morphine), the “AD50 (Test B): inactive at dose stated” value is “IA” and the “narcotic antagonist activity (in words)” value is given as “not a narcotic antagonist”.

As for `CO[C@@]12[C@H](C)CC(=O)C[C@@]13CCN(CC1CCC1)[C@@H]2Cc1ccc(O)cc13` [TR-5249, 17-Cyclobutylmethyl-3-hydroxy-14-methoxy-8α-methylmorphinan-6-one], the ED50 stood at 0.14 mg/kg in the assay on mice (setting [4]) and 3 mg/kg in the assay on rats (setting [3]).

On to `CO[C@@]12[C@@H](C)CC(O)C[C@@]13CCN(CC1CC1)[C@@H]2Cc1ccc(O)cc13` (stereo partly drawn) [TR-5250, 17-Cyclopropylmethyl-14-methoxy-8β-methylmorphinan-3,6-diol Hydrochloride], for which the “ED50 (Test A): inactive at dose stated” value in the assay on mice (at 10 mg/kg, subcutaneous) was “IA (IA is intended to mean "inactive")”. The ED50 with rats (setting [3]) was 0.32 mg/kg. In addition, the “less active as narcotic antagonist than TR-5210” value in the assay on rats (rats, tail flick vs morphine, compared with TR-5210) is on record as ~2 orders of magnitude.

As for `CO[C@@]12[C@H](C)CC(=O)C[C@@]13CCN(CC1CC1)[C@@H]2Cc1ccc(O)cc13.Cl` [TR-5284, 17-Cyclopropylmethyl-3-hydroxy-14-methoxy 8α-methylmorphinan-6-one Hydrochloride], the “ED50 (Test A): inactive at dose stated” value in the assay on mice (at 10 mg/kg, subcutaneous) is “IA (IA is intended to mean "inactive")”. Further, the ED50 in the assay on rats (setting [3]) is under 3 mg/kg. In the assay with rats (rats, tail flick vs morphine), the “narcotic antagonist activity (in words)” value was “is a narcotic antagonist”. Moreover, the agonist/antagonist profile entry in assay [1] is “pure narcotic antagonists”.

Take `CO[C@@]12[C@H](C)CC(O)C[C@@]13CCN(CC1CC1)[C@@H]2Cc1ccc(O)cc13.Cl` (stereo partly drawn) [TR-5285, 17-Cyclopropylmethyl-14-methoxy-8α-methylmorphinan-3,6-diol Hydrochloride]: the ED50 with mice (setting [4]) and in the assay on rats (setting [3]) was over 10 mg/kg throughout. In assay [1], the agonist/antagonist profile entry was “not active as an analgesic or a narcotic antagonist”.

For the compound `COc1ccc2c(c1)[C@]13CCN(CC4CCC4)[C@H](C2)[C@]1(OC)CCC(=O)C3` [TR-5296, 17-Cyclobutylmethyl-3,14-dimethoxymorphinan-6-one Hydrochloride], the ED50 in the assay with mice (setting [4]) is 0.77 mg/kg. In the assay with rats (rats, tail flick vs morphine), the “AD50 (Test B): inactive at dose stated” value worked out at 1A. Moreover, in assay [1], the agonist/antagonist profile entry is on record as “pure analgesics”.

In the case of `COc1ccc2c(c1)[C@]13CCN(CC4CC4)[C@H](C2)[C@]1(OC)CCC(=O)C3` [TR-5305, 17-Cyclopropylmethyl-3,14-dimethoxymorphinan-6-one], in the assay with mice (setting [4]), the ED50 turned out to be 0.98 mg/kg. Besides, the “AD50 (Test B, narcotic antagonist activity)” value with rats (setting [5]) amounted to 1.60 mg/kg. In addition, the agonist/antagonist profile result in assay [1] is “mixed analgesic (agonist) and narcotic antagonist activity”.

For the compound `CO[C@@]12CCC(=O)C[C@@]13CCN(CC1CCC1)[C@@H]2Cc1ccc(O)cc13` [TR-5306, 17-Cyclobutylmethyl-3-hydroxy-14-methoxymorphinan-6-one Hydrochloride], in the assay on mice (setting [4]), the ED50 stood at 0.007 mg/kg. In the assay with rats (rats, tail flick vs morphine), the “AD50 (Test B): inactive at dose stated” value is reported as “IA”. Besides, the agonist/antagonist profile entry in assay [1] is “pure analgesics”.

`CO[C@@]12[C@H](C)CC(=O)C[C@@]13CCN(CC=C(C)C)[C@@H]2Cc1ccc(O)cc13.Cl` [TR-5310, 17-Dimethylallyl-3-hydroxy-14-methoxy-8α-methylmorphinan-6-one Hydrochloride]: the ED50 in the assay on mice (setting [4]) was 0.18 mg/kg. Moreover, the “AD50 (Test B): inactive at dose stated” value with rats (rats, tail flick vs morphine) was “IA”. For the same compound, the agonist/antagonist profile result in assay [1] is “pure analgesics”.

On to `CO[C@@]12CCC(=O)C[C@@]13CCN(CC1CC1)[C@@H]2Cc1ccc(O)cc13.Cl` [TR-5325, 17-Cyclopropylmethyl-3-hydroxy-14-methoxymorphinan-6-one Hydrochloride], for which the ED50 with mice (setting [4]) stood at 0.45 mg/kg; in the assay with rats (setting [3]) it was 0.35 mg/kg. Besides, the agonist/antagonist profile result in assay [1] (Hydrochloride) was “mixed analgesic (agonist) and narcotic antagonist activity”.

With `COc1ccc2c(c1)[C@]13CCN(CC4CCCO4)[C@H](C2)[C@]1(OC)CCC(=O)C3.Cl` (stereo partly shown) [TR-5326, 3,14-Dimethoxy-17-tetrahydrofurfurylmorphinan-6-one Hydrochloride], in the assay with mice (setting [4]), the ED50 was 0.16 mg/kg. Further, in the assay on rats (rats, tail flick vs morphine), the “AD50 (Test B): inactive at dose stated” value is listed as “IA”. Moreover, the agonist/antagonist profile entry in assay [1] was “pure analgesics”.

As to `COc1ccc2c(c1)[C@]13CCN(CC4CCCO4)[C@H](C2)[C@]1(OC)[C@H](C)CC(=O)C3.Cl` (stereo partly drawn) [TR-5327, 17-Tetrahydrofurfuryl-3,14-dimethoxy-8α-methylmorphinan-6-one Hydrochloride], the ED50 in the assay on mice (setting [4]) was found to be 1.85 mg/kg. In the assay with rats (rats, tail flick vs morphine), the “AD50 (Test B): inactive at dose stated” value was “IA”. The agonist/antagonist profile entry in assay [1] is “pure analgesics”.

For `CO[C@@]12CCC(=O)C[C@@]13CCN(CC1CCCO1)[C@@H]2Cc1ccc(O)cc13` (stereo partly shown) [TR-5340, 3-Hydroxy-14-methoxy-17-tetrahydrofurfurylmorphinan-6-one], the ED50 in the assay with mice (setting [4]) worked out at 0.03 mg/kg. Further, the “AD50 (Test B): inactive at dose stated” value with rats (rats, tail flick vs morphine) is “IA”. Moreover, in assay [1], the agonist/antagonist profile result was “pure analgesics”.

`COc1ccc2c(c1)[C@]13CCN(CC4CC4)[C@H](C2)[C@]1(OC)CCC(=O)C3` [TR-5400, 17-Cyclopropylmethyl-3,14-dimethoxymorphinan-6-one]: in the assay on mice (subcutaneous, 15 min before acetic acid, dose reducing writhes by 50%), the “ED50 (Test A, acetic acid mouse writhing test)” value amounted to 0.89 mg/kg. In the assay on rats (setting [5]), the “AD50 (Test B, narcotic antagonist activity)” value is given as 0.64 mg/kg.

For `C[C@H]1[C@H]2Cc3ccc(O)cc3[C@]1(C)CCN2CC1CC1` [cyclazocine], the “analgesic / narcotic antagonist activity (literature)” value in assay [2] is reported as “mixed analgesic/narcotic antagonist activity”.
